The results in this text go back to publication PMC4084896 (PLoS ONE, 2014).

For series [1], the system named is CYP1A1 mRNA. The conditions noted are these: HepG2, TCDD 5 nM, 24 h, vs vehicle.
The subject of the next series is CYP1A1 protein. As to the kind of experiment: CYP1A1 protein in primary human hepatocytes (western blot). The format is cell-based. The conditions noted are these: cultures HH52, HH54, Hep220770, 48 h. As to the method:
Cells were cultured in serum-free medium.
Total protein extracts were prepared from cells on 6-well plates. Cells were washed twice with ice-cold PBS and scraped into 1 ml of PBS. The suspension was centrifuged (4500 RPM/5 min/4°C) and the pellet was resuspended in 150 µl of ice-cold lysis buffer (150 mM NaCl; 10 mM Tris pH 7.2; 0.1% (w/v) SDS; anti-protease cocktail, 1% (v/v) Triton X-100; anti-phosphatase cocktail, 1% (v/v) sodium deoxycholate; 5 mM EDTA). The mixture was vortexed and incubated for 10 min on ice and then centrifuged (15000 RPM/13 min/4°C). Supernatant was collected and the protein content was determined by the Bradford reagent. SDS–PAGE gels (10%) were run on a BioRad apparatus according to the general procedure followed by the protein transfer onto PVDF membrane. The membrane was saturated with 5% non-fat dried milk for 1 h at room temperature. Blots were probed with primary antibodies against CYP1A1 (goat polyclonal, sc-9828, G-18, dilution 1∶500), CYP1A2 (mouse monoclonal, sc-374228, G-4, dilution 1∶2000), actin (goat polyclonal; sc-1616, 1–19, dilution 1∶2000), all purchased from Santa Cruz Biotechnology (Santa Cruz, CA, USA). Chemiluminescent detection was performed using horseradish peroxidase-conjugated secondary antibodies (Santa Cruz Biotechnology) and Western blotting Luminol kit (Santa Cruz Biotechnology).
In general terms: A western blot detects proteins with antibodies after separation by electrophoresis.

In a further series the test system is CYP1A2 mRNA. Briefly: in vitro. The conditions noted are these: human, 24 h. The source says:
(§1) Primary human hepatocytes used in this study were obtained from two sources: (i) from multiorgan donors LH52 (female; 60 years) and LH54 (person), when: a) Tissue acquisition protocol was in accordance with the requirements issued by “Ethical Committee of the Faculty Hospital Olomouc, Czech Republic” and with Transplantation law #285/2002 Sb., b) “Ethical Committee of the Faculty Hospital Olomouc, Czech Republic” approved the study and the use of primary human hepatocytes for research presented in the current paper., c) The consent from the next of kin of the donor was waived by “Ethical Committee of the Faculty Hospital Olomouc, Czech Republic”; (ii) long-term human hepatocytes in monolayer Batch HEP220770 (person), Batch HEP220774 (person) (purchased from Biopredic International, Rennes, France). Cells were cultured in serum-free medium. Cultures were maintained at 37°C and 5% CO2 in a humidified incubator.
(§2) Total RNA was isolated using TRI Reagent (Molecular Research Center, Cincinnati, OH, USA). cDNA was synthesized from 1000 ng of total RNA using M-MLV Reverse Transcriptase (Finnzymes, Espoo, Finland) at 42°C for 60 min in the presence of random hexamers (Takara, Shiga, Japan). qRT-PCR was carried out using LightCycler FastStart DNA MasterPLUS SYBR Green I (Roche Diagnostic Corporation, Prague, Czech Republic) on a Light Cycler 480 II apparatus (Roche Diagnostic Corporation). CYP1A1, CYP1A2, tyrosine aminotransferase (TAT) and GAPDH mRNAs were determined as described previously, [16]. Measurements were performed in triplicates. Gene expression was normalized to GAPDH as a housekeeping gene.

The subject of series [2] is CYP1A1 mRNA. As to the kind of experiment: in vitro. The conditions noted are these: human, 24 h.
From the text: as §1, §2

Series [3] deals with CYP1A1/1A2 catalytic activity (EROD). Briefly: EROD assay in primary human hepatocytes. The series is classed as cell-based. The conditions noted are these: culture Hep220774, TCDD 5 nM, 24 h. As to the method: Cells were treated for 24 h with tested compounds.
The cells were treated for 24 h with (+)-KET, (−)-KET and commercial rac-KET (1 µM, 30 µM, 50 µM), and with TCDD (5 nM) and vehicle (DMSO; 0.1% V/V). […] In the cytotoxicity assay, we found all forms of KET highly toxic against human hepatocytes at the concentration 50 µM.

For series [4], the target named is T1, aryl hydrocarbon receptor AhR (Homo sapiens, UniProt P35869).
T1 construct: endogenous in cells; host or cells: AZ-AHR (stably transfected reporter line derived from HepG2)
T1 sequence (P35869 11-848): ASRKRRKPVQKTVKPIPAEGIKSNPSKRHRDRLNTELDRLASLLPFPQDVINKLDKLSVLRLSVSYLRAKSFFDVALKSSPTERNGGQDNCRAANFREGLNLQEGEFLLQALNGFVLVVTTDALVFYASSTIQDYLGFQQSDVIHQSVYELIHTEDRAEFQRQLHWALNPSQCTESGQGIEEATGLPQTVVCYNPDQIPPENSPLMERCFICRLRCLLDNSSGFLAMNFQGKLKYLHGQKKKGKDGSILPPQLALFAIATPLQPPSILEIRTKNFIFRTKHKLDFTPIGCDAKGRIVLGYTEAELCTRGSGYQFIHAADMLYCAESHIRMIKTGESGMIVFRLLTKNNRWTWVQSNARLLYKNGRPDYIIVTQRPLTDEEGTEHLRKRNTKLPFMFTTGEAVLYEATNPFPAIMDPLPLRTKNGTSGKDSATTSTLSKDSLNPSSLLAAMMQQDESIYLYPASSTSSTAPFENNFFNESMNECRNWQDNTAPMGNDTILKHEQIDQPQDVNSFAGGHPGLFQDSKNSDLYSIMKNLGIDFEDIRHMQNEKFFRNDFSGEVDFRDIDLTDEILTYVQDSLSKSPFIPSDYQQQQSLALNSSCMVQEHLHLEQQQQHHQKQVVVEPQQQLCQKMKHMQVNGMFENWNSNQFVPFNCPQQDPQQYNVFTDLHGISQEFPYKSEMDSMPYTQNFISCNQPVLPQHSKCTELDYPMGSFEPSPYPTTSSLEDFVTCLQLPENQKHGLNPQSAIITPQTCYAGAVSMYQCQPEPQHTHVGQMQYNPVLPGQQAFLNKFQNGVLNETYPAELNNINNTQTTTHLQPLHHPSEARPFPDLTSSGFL
Briefly: AhR gene reporter assay in AZ-AHR cells, agonist mode. The series is classed as cell-based. The settings on record: 5 nM TCDD, four passages. The source says: A stably transfected gene reporter cell line AZ-AHR, derived from human hepatoma HepG2 cells transfected with a construct containing several AhR binding sites upstream of a luciferase reporter gene, was used for assessment of AhR transcriptional activity. A stably transfected gene reporter cell line AZ-GR, derived from human cervix carcinoma HeLa cells transfected with a construct containing several GR response elements upstream of a luciferase reporter gene, was used for assessment of GR transcriptional activity. Cells were incubated for 24 h with tested compounds and/or vehicle (DMSO; 0.1% v/v), in the presence or absence of TCDD (5 nM; AZ-AHR cells) or DEX (100 nM; AZ-GR cells). After the treatments, cells were lysed and luciferase activity was measured. In parallel, cell viability was determined by conventional MTT test.
Gene reporter assays were performed in two different experimental layouts. In agonist mode, cells were treated with increasing concentrations of tested compounds, and the half-maximal effective concentrations (EC50) were calculated.
A general note: A reporter such as luciferase makes a cellular process visible.

[5] abbreviates: female, culture HH52, TCDD 5 nM.
Where [6] appears, read: female, culture Hep220770, TCDD 5 nM.

Consider `Clc1cc2c(cc1Cl)Oc1cc(Cl)c(Cl)cc1O2` [TCDD, 2,3,7,8-tetrachlorodibenzo-p-dioxin], for which, in the series with CYP1A1 mRNA [1], the “CYP1A1 mRNA induction” value is recorded as “approximately 500 fold”. In the series with CYP1A1 protein, the “CYP1A1 protein induction (in words)” value is “drastic increase”. Besides, the fold induction worked out at 79 in the series with CYP1A2 mRNA (setting [5]); 219 with CYP1A2 mRNA (setting [6]); 30 with CYP1A2 mRNA (male, culture HH54, TCDD 5 nM); 53 in the series with CYP1A1 mRNA [2] (setting [5]); 1840 in the series on CYP1A1 mRNA [2] (setting [6]); 101 in the series on CYP1A1 mRNA [2] (male, culture HH54, TCDD 5 nM). Besides, in series [3], the “induction of EROD activity” value was “approximately 15 fold”. The “average induction of AhR-dependent luciferase activity” value in series [4] came to 435 fold.

A word on the fold induction: it is the ratio of treated to control signal. Read a low fold induction as little rise in signal.
